From PubChem BioAssay (NCI) come the findings set out here.

Test systems include A549 NSCLC; K-562 leukemia; NCI-H226 lung; OVCAR-5 ovarian; SNB-75 CNS; OVCAR-3 ovarian; TK-10 renal; M14 melanoma; HCC-2998 colon; HT29 colon.
Assay in all cases: NCI anticancer screen, dose series, 48 h

Several values for one entry are separate records, joined by “and”; a condition that tells them apart may be missing. Identical values can stand only once.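 Results reflect a 48-hour exposure of cells in 96-well plates to compound at five concentrations. Here, GI50 denotes the concentration required for 50% inhibition of growth. TGI: total growth inhibition.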 Some results are limits rather than exact numbers.

In the case of `COc1cc(NCc2ccc3nc(N)nc(N)c3c2C)cc(OC)c1OC` (tested in a mixture with another compound), the GI50 was 0.000138 µM in the assay with A549 NSCLC; 0.000159 µM in the assay on K-562 leukemia; 0.0892 µM in the assay on NCI-H226 lung; 0.0287 µM with OVCAR-5 ovarian; 23.2 µM and 4.8 µM with TK-10 renal; 0.0222 µM and 0.025 µM in the assay with M14 melanoma. For the same compound, the GI50 in the assay with HCC-2998 colon was 0.00957 µM. In addition, the TGI came out at 21.9 µM with A549 NSCLC; 46.3 µM in the assay with K-562 leukemia; 52.8 µM with NCI-H226 lung; 35.9 µM in the assay with OVCAR-5 ovarian; 52.7 µM in the assay with SNB-75 CNS; 77.8 µM in the assay on OVCAR-3 ovarian. The figures for the TGI with TK-10 renal and in the assay with HT29 colon were 47.5 µM and 41.9 µM, respectively.

With `CC(C)Oc1ccc2cc(-c3nn(CC4CCNCC4)c4ncnc(N)c34)ccc2c1`, the GI50 is 14.5 µM in the assay with A549 NSCLC; 2.04 µM with K-562 leukemia; 17.4 µM with NCI-H226 lung; 11.9 µM in the assay on OVCAR-5 ovarian; 1.09 µM in the assay with SNB-75 CNS; 12.5 µM in the assay with OVCAR-3 ovarian. The GI50 is 12.8 µM with TK-10 renal, 2.05 µM in the assay with M14 melanoma, 9.53 µM in the assay on HCC-2998 colon and 2.78 µM in the assay with HT29 colon. Moreover, the TGI turned out to be 28.3 µM in the assay on A549 NSCLC; 6.29 µM in the assay with K-562 leukemia; 35.2 µM in the assay with NCI-H226 lung; 24.1 µM in the assay on OVCAR-5 ovarian; 15.2 µM in the assay with SNB-75 CNS; 25 µM with OVCAR-3 ovarian. Also, the TGI was determined as 25.7 µM with TK-10 renal, 4.68 µM in the assay on M14 melanoma, 24.6 µM in the assay on HCC-2998 colon and 12.2 µM in the assay on HT29 colon.

In the case of `CCCc1nc(NC#N)nc(C(=O)Nc2ccccc2)c1CC`, the TGI with A549 NSCLC, with K-562 leukemia, in the assay on NCI-H226 lung, in the assay with OVCAR-5 ovarian, in the assay on SNB-75 CNS and with OVCAR-3 ovarian was over 100 µM throughout. In addition, the TGI with TK-10 renal, in the assay on M14 melanoma, in the assay with HCC-2998 colon and in the assay with HT29 colon was over 100 µM each time.

Turning to `O=C(O)Cc1cc(Cl)ccc1O`, the TGI in the assay on A549 NSCLC, in the assay on K-562 leukemia, in the assay with NCI-H226 lung, in the assay with OVCAR-5 ovarian, in the assay on SNB-75 CNS and with OVCAR-3 ovarian was over 100 µM throughout. Also, the TGI in the assay on TK-10 renal, with M14 melanoma, with HCC-2998 colon and with HT29 colon was over 100 µM throughout.

`Nc1nc(/C=C\c2ccc([N+](=O)[O-])s2)nc(N2CCCC2)n1`: the GI50 with A549 NSCLC is 2.97 µM; in the assay with K-562 leukemia, 1.83 µM; with NCI-H226 lung, 3.32 µM; in the assay with OVCAR-5 ovarian, 15.7 µM; with SNB-75 CNS, 15.1 µM; with OVCAR-3 ovarian, 3.49 µM. Also, the GI50 was 6.27 µM in the assay with TK-10 renal, 3.72 µM in the assay on M14 melanoma, 4.86 µM with HCC-2998 colon and 2.97 µM in the assay on HT29 colon. The TGI amounted to 22.9 µM in the assay with A549 NSCLC; 8.32 µM in the assay with K-562 leukemia; 21.7 µM with NCI-H226 lung; 30.7 µM with OVCAR-5 ovarian; 44 µM in the assay on SNB-75 CNS; 12.2 µM in the assay with OVCAR-3 ovarian. For the same compound, the TGI in the assay on TK-10 renal was 20.9 µM; in the assay on M14 melanoma, 17.1 µM; with HCC-2998 colon it was 12.8 µM; in the assay with HT29 colon, 14.8 µM.

As for `O=C1Nc2ccccc2/C1=N\[O-].O=C1Nc2ccccc2/C1=N\[O-].[Cu+2]`, the GI50 in the assay on A549 NSCLC, with K-562 leukemia, in the assay with NCI-H226 lung, in the assay with OVCAR-5 ovarian, with SNB-75 CNS and in the assay with OVCAR-3 ovarian was over 100 µM in each case. The GI50 in the assay with TK-10 renal, in the assay on M14 melanoma, with HCC-2998 colon and with HT29 colon was over 100 µM each time. The TGI with A549 NSCLC, with K-562 leukemia, with NCI-H226 lung, in the assay with OVCAR-5 ovarian, in the assay on SNB-75 CNS and in the assay with OVCAR-3 ovarian was over 100 µM in each case. Further, the TGI in the assay with TK-10 renal, with M14 melanoma, in the assay on HCC-2998 colon and in the assay with HT29 colon was over 100 µM each time.

In the case of `O=C1OCC2=C1C(c1cccc(Br)c1)c1cc3c(cc1N2CCO)CCC3` (stereo not given), the GI50 in the assay with A549 NSCLC was 0.133 µM; with K-562 leukemia, 0.11 µM; in the assay on NCI-H226 lung it was 0.116 µM; in the assay on OVCAR-5 ovarian it was 0.322 µM; with SNB-75 CNS it was 0.0607 µM; in the assay on OVCAR-3 ovarian, 0.0339 µM. Further, the GI50 with TK-10 renal is 0.736 µM; in the assay on M14 melanoma, 0.078 µM; with HCC-2998 colon, 0.13 µM; with HT29 colon, 0.109 µM. Also, the TGI in the assay with A549 NSCLC was 5.54 µM; with K-562 leukemia it was 7.9 µM; with NCI-H226 lung, 0.761 µM; with OVCAR-5 ovarian, 10 µM; in the assay with SNB-75 CNS, 9.41 µM; in the assay on OVCAR-3 ovarian, 0.153 µM. Further, the TGI amounted to 11.3 µM in the assay with TK-10 renal, 5.78 µM in the assay on M14 melanoma, 1.66 µM in the assay with HCC-2998 colon and 1.3 µM in the assay on HT29 colon.

With `CCOC(=O)C(Cc1ccc(CCCC(=O)NCCC(=O)Nc2ccc3nc(C)sc3c2)cc1)C(=O)OCC`, the GI50 with A549 NSCLC was 59.1 µM; in the assay with K-562 leukemia it was 47.3 µM; with NCI-H226 lung it was 36.1 µM; in the assay on OVCAR-5 ovarian, over 100 µM; in the assay with SNB-75 CNS, over 52.1 µM; in the assay with OVCAR-3 ovarian it was 54.9 µM. In addition, the GI50 in the assay on TK-10 renal is over 100 µM; in the assay on M14 melanoma, 29.3 µM; in the assay with HCC-2998 colon, 60.4 µM; in the assay with HT29 colon, over 64.2 µM. Moreover, the TGI in the assay on A549 NSCLC, in the assay on K-562 leukemia, in the assay on NCI-H226 lung, with OVCAR-5 ovarian, in the assay with SNB-75 CNS and with OVCAR-3 ovarian was over 100 µM throughout. In addition, the TGI in the assay with TK-10 renal was over 100 µM; in the assay on M14 melanoma it was over 93.8 µM; in the assay on HCC-2998 colon it was over 100 µM; in the assay with HT29 colon it was over 100 µM.

In the case of `CC[C@H]1[C@@H]2C=C[C@@H]3[C@H]4C/C=C\C(=O)NCCC[C@@H]5NC(=O)/C(=C(O)/C=C/[C@@H]4C[C@@H]3[C@H]2C[C@H]1C)C5=O`, the GI50 in the assay on A549 NSCLC was 2 µM; with K-562 leukemia, 1.96 µM; in the assay with NCI-H226 lung, 0.738 µM; in the assay on OVCAR-5 ovarian, 1.66 µM; in the assay on SNB-75 CNS, 0.415 µM; in the assay on OVCAR-3 ovarian, 0.202 µM. In addition, the GI50 is 1.35 µM with TK-10 renal, 1.58 µM with M14 melanoma, 1.8 µM in the assay with HCC-2998 colon and 1.73 µM in the assay with HT29 colon. The TGI in the assay on A549 NSCLC is 3.99 µM; in the assay on K-562 leukemia it was 4.24 µM; with NCI-H226 lung, 2.56 µM; in the assay on OVCAR-5 ovarian, 3.5 µM; in the assay with SNB-75 CNS, 1.58 µM; in the assay with OVCAR-3 ovarian, 0.556 µM. Moreover, the TGI is 2.71 µM in the assay on TK-10 renal, 3.08 µM with M14 melanoma, 3.62 µM in the assay on HCC-2998 colon and 3.31 µM in the assay with HT29 colon.

Take `Clc1ccc2[nH]cc(-c3nnnn3-c3ccccc3)c2c1`: the GI50 in the assay with A549 NSCLC was 20.8 µM; in the assay on K-562 leukemia it was 8.58 µM; in the assay with NCI-H226 lung, 74 µM; with OVCAR-5 ovarian, 21.8 µM; in the assay with SNB-75 CNS, 6.25 µM; in the assay on OVCAR-3 ovarian, 6.66 µM. Further, the GI50 with TK-10 renal is 7.29 µM; with M14 melanoma, 9.74 µM; with HCC-2998 colon, 5.32 µM; with HT29 colon, 11.9 µM. Moreover, the TGI with A549 NSCLC was over 100 µM; in the assay with K-562 leukemia, over 67.3 µM; in the assay on NCI-H226 lung, over 100 µM; in the assay on OVCAR-5 ovarian, over 89.8 µM; in the assay with SNB-75 CNS, 30.8 µM; in the assay on OVCAR-3 ovarian it was over 42.5 µM. Also, the TGI is over 31.6 µM in the assay on TK-10 renal, 41.8 µM in the assay with M14 melanoma, 20.1 µM in the assay with HCC-2998 colon and over 70.9 µM in the assay on HT29 colon.
